According to patent US9833497B2, “Human originated EGF domain proteins and use of the same” (CHENGDU SOURCEBIO LIMITED-LIABILITY COMPANY, priority 2013, dated 2017):

What was measured:
Format in all cases: cell-based
E. coli DH5α = experiment: Antibacterial activity: MIC and growth curve against E. coli DH5α in 96-well plate; conditions: minimal inhibitory concentration against E. coli DH5α; 96-well plate, 5×10^5 CFU/mL, 37° C., judged after 8 h
Method in brief: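 MIC taken as lowest protein level with no bacterial growth, tracked by A600 every 30 min during 37 °C, 175 rpm culture. Two-fold protein series 50-12.5 μg/mL final, triplicate wells, against 5×10^5 CFU/mL of LB-washed mid-log cells.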

Enterobacter cloacae = experiment: MIC against Gram-negative bacteria: Enterobacter cloacae; conditions: for MIC (μg/mL) E. cloacae: 5×10^5 CFU/mL
Method in brief: (§1)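 Two-fold serial dilutions of each purified human EGF domain protein, three replicate wells per level, were combined with bacteria at a final 5×10^5 CFU/mL in LB. Cultures were shaken at 175 rpm, 37° C. The MIC was taken as the minimum concentration preventing growth.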

Citrobacter diversus = experiment: MIC against Gram-negative bacteria: Citrobacter diversus; conditions: for MIC (μg/mL) C. diversus: 5×10^5 CFU/mL
Method in brief: as §1

Pseudomonas aeruginosa = experiment: MIC against Gram-negative bacteria: Pseudomonas aeruginosa; conditions: for MIC (μg/mL) P. aeruginosa: 5×10^5 CFU/mL
Method in brief: as §1

Serratia marcescens = experiment: MIC against Gram-negative bacteria: Serratia marcescens; conditions: for MIC (μg/mL) S. marcescens: 5×10^5 CFU/mL
Method in brief: as §1

Klebsiella pneumonia = experiment: MIC against Gram-negative bacteria: Klebsiella pneumonia; conditions: for MIC (μg/mL) K. pneumonia: 5×10^5 CFU/mL
Method in brief: as §1

Proteus vulgaris = experiment: MIC against Gram-negative bacteria: Proteus vulgaris; conditions: for MIC (μg/mL) P. vulgaris: 5×10^5 CFU/mL
Method in brief: as §1

E. coli BL21 = experiment: MIC against Gram-negative bacteria: E. coli BL21; conditions: E. coli BL21; for MIC (μg/mL) E. coli BL21: 5×10^5 CFU/mL
Method in brief: as §1

Moraxella catarrhalis = experiment: MIC against Gram-negative bacteria: Moraxella catarrhalis; conditions: for MIC (μg/mL) M. catarrhalis: 5×10^5 CFU/mL
Method in brief: as §1

Aeromonas hydrophila = experiment: MIC against Gram-negative bacteria: Aeromonas hydrophila; conditions: for MIC (μg/mL) A. hydrophila: 5×10^5 CFU/mL
Method in brief: as §1

Proteus mirabilis = experiment: MIC against Gram-negative bacteria: Proteus mirabilis; conditions: for MIC (μg/mL) P. mirabilis: 5×10^5 CFU/mL
Method in brief: as §1

[1] = E. cloacae, 10 h cultivation at 37° C.
[2] = C. diversus, 10 h cultivation at 37° C.
[3] = P. aeruginosa, 10 h cultivation at 37° C.
[4] = S. marcescens, 10 h cultivation at 37° C.
[5] = K. pneumonia, 10 h cultivation at 37° C.
[6] = P. vulgaris, 10 h cultivation at 37° C.
[7] = M. catarrhalis, 10 h cultivation at 37° C.
[8] = A. hydrophila, 10 h cultivation at 37° C.
[9] = P. mirabilis, 10 h cultivation at 37° C.

Substance	MIC (E. coli DH5α)	MIC (Enterobacter cloacae; [1])	MIC (Citrobacter diversus; [2])	MIC (Pseudomonas aeruginosa; [3])	MIC (Serratia marcescens; [4])	MIC (Klebsiella pneumonia; [5])	MIC (Proteus vulgaris; [6])	MIC (E. coli BL21; 10 h cultivation at 37° C.)	MIC (Moraxella catarrhalis; [7])	MIC (Aeromonas hydrophila; [8])	MIC (μg/mL) E. cloacae (Enterobacter cloacae; [1])	MIC (μg/mL) C. diversus (Citrobacter diversus; [2])	MIC (μg/mL) P. aeruginosa (Pseudomonas aeruginosa; [3])	MIC (μg/mL) S. marcescens (Serratia marcescens; [4])	MIC (μg/mL) K. pneumonia (Klebsiella pneumonia; [5])	MIC (μg/mL) P. vulgaris (Proteus vulgaris; [6])	MIC (μg/mL) E. coli BL21 (E. coli BL21; 10 h cultivation at 37° C.)	MIC (μg/mL) M. catarrhalis (Moraxella catarrhalis; [7])	MIC (μg/mL) A. hydrophila (Aeromonas hydrophila; [8])	MIC (μg/mL) P. mirabilis (Proteus mirabilis; [9])	other results
PRT894 (NLDDCASSPCDSGTCLDKIDGYECACEPGYTGSMCN; listed as Homo sapiens)	12.5 µg/mL	12.5 µg/mL	12.5 µg/mL	12.5 µg/mL	12.5 µg/mL	50 µg/mL	50 µg/mL	50 µg/mL	50 µg/mL	50 µg/mL											MIC (Proteus mirabilis; [9]): 12.5 µg/mL
PRT976 (IGVRLEQLCQAGGQCVDEDSSHYCVCPEGRTGSHCE; listed as Homo sapiens)	50 µg/mL	50 µg/mL	25 µg/mL	50 µg/mL	25 µg/mL	12.5 µg/mL	25 µg/mL	12.5 µg/mL	25 µg/mL	12.5 µg/mL											MIC (Proteus mirabilis; [9]): 50 µg/mL
PRT184 (DLNYCTHHSPCKNGATCSNSGQRSYTCTCRPGYTGVDCE; listed as Homo sapiens)	25 µg/mL										25 µg/mL	25 µg/mL	25 µg/mL	25 µg/mL	50 µg/mL	12.5 µg/mL	12.5 µg/mL	50 µg/mL	12.5 µg/mL	25 µg/mL	
PRT114 (PKYGCNFNNGGCHQDCFEGGDGSFLCGCRPGFRLLDDLVTCA; listed as Homo sapiens)	12.5 µg/mL																				MIC (μg/mL) E. cloacae (Enterobacter cloacae; Enterobacter cloacae, 96-well plate, 37° C., 10 h): 12.5 µg/mL; MIC (μg/mL) C. diversus (Citrobacter diversus; Citrobacter diversus, 96-well plate, 37° C., 10 h): 12.5 µg/mL; MIC (μg/mL) P. aeruginosa (Pseudomonas aeruginosa; Pseudomonas aeruginosa, 96-well plate, 37° C., 10 h): 12.5 µg/mL; MIC (μg/mL) S. marcescens (Serratia marcescens; Serratia marcescens, 96-well plate, 37° C., 10 h): 12.5 µg/mL; MIC (μg/mL) K. pneumonia (Klebsiella pneumonia; Klebsiella pneumonia, 96-well plate, 37° C., 10 h): 25 µg/mL; MIC (μg/mL) P. vulgaris (Proteus vulgaris; Proteus vulgaris, 96-well plate, 37° C., 10 h): 12.5 µg/mL; MIC (μg/mL) E. coli BL21 (E. coli BL21; 96-well plate, 37° C., 10 h): 12.5 µg/mL; MIC (μg/mL) M. catarrhalis (Moraxella catarrhalis; Moraxella catarrhalis, 96-well plate, 37° C., 10 h): 12.5 µg/mL; MIC (μg/mL) A. hydrophila (Aeromonas hydrophila; Aeromonas hydrophila, 96-well plate, 37° C., 10 h): 25 µg/mL; MIC (μg/mL) P. mirabilis (Proteus mirabilis; Proteus mirabilis, 96-well plate, 37° C., 10 h): 12.5 µg/mL
PRT754 (IQDLCAMEDHNCEQLCVNVPGSFVCQCYSGYALAEDGKRCV; listed as Homo sapiens)	25 µg/mL										12.5 µg/mL	50 µg/mL	50 µg/mL	25 µg/mL	25 µg/mL	50 µg/mL	12.5 µg/mL	25 µg/mL	25 µg/mL	12.5 µg/mL	
PRT780 (EYSSCSRHPCQNGGTCINGRTSFTCACRHPFTGDNCT; listed as Homo sapiens)	12.5 µg/mL										12.5 µg/mL	25 µg/mL	12.5 µg/mL	12.5 µg/mL	50 µg/mL	50 µg/mL	50 µg/mL	12.5 µg/mL	50 µg/mL	25 µg/mL	
